Measurements: ChEMBL document CHEMBL2074003, “Transport of somatostatin and substance P by human P-glycoprotein” (FEBS Lett, 2004)

Tests used:
[1] = target: T1, ATP-dependent translocase ABCB1 (Homo sapiens, UniProt P08183); assay: TP_TRANSPORTER: uptake in membrane vesicles prepared from K562/ADM cells; assay type: functional, cell membranes, Membrane vesicle; conditions: k562/adr
[2] = target: T1, ATP-dependent translocase ABCB1; assay: TP_TRANSPORTER: uptake in membrane vesicles prepared from human MDR1 transfected KB3-1 cells; assay type: functional, cell membranes, Membrane vesicle; conditions: kb 3-1

T1 sequence (P08183 whole entry): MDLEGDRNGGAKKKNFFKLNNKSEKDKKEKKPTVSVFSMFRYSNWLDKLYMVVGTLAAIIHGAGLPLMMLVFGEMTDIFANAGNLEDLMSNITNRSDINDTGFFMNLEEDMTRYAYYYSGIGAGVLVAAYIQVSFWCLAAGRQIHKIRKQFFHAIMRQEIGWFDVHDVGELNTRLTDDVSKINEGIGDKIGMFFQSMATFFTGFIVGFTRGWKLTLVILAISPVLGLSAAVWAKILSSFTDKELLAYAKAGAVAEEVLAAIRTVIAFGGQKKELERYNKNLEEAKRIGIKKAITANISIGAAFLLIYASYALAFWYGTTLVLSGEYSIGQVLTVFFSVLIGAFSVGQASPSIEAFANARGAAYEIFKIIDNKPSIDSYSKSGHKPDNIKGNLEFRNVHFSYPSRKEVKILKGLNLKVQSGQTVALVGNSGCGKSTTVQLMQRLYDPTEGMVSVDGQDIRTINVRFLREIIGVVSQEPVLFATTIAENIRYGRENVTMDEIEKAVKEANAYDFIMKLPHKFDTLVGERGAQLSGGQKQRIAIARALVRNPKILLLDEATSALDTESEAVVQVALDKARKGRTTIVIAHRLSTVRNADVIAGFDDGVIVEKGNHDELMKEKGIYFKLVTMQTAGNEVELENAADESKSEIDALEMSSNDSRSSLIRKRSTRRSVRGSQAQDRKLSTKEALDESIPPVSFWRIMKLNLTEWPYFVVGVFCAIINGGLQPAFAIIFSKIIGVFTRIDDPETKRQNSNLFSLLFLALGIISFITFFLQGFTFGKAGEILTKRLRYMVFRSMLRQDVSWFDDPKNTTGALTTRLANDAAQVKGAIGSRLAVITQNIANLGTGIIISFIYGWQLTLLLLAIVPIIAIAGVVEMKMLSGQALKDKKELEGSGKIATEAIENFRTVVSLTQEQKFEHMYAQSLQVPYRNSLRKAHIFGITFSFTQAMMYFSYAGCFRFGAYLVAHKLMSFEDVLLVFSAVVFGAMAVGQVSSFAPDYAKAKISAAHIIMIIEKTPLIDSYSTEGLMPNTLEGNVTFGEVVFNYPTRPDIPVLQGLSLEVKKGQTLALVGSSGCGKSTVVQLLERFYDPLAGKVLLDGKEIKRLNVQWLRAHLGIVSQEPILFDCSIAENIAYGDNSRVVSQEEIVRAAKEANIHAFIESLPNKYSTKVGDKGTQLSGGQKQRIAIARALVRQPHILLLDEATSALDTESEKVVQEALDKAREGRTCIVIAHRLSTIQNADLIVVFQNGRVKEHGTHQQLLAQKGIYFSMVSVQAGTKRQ

| SMILES | Activity [1] | Activity [2] |
| --- | --- | --- |
| C[C@H](N)C(=O)NCC(=O)N[C@H]1CSSC[C@@H](C(=O)O)NC(=O)[C@H](CO)NC(=O)[C@H]([C@@H](C)O)NC(=O)[C@H](Cc2ccccc2)NC(=O)[C@H]([C@@H](C)O)NC(=O)[C@H](CCCCN)NC(=O)[C@H](Cc2c[nH]c3ccccc23)NC(=O)[C@H](Cc2ccccc2)NC(=O)[C@H](Cc2ccccc2)NC(=O)[C@H](CC(N)=O)NC(=O)[C@H](CCCCN)NC1=O [SOMATOSTATIN] | substrate [+] | substrate [+] |
| CSCC[C@H](NC(=O)[C@H](CC(C)C)NC(=O)CNC(=O)[C@H](Cc1ccccc1)NC(=O)[C@H](Cc1ccccc1)NC(=O)[C@H](CCC(N)=O)NC(=O)[C@H](CCC(N)=O)NC(=O)[C@@H]1CCCN1C(=O)[C@H](CCCCN)NC(=O)[C@@H]1CCCN1C(=O)[C@@H](N)CCCN=C(N)N)C(N)=O [SUBSTANCE P] | substrate [+] | substrate [+] |
